Values joined by “and” are separate entries in the source; they are usually repeats but may differ in a detail not shown here. Equal entries are not always repeated.
Tested on: painful spasm caused by intraperitoneal injection of phenylbenzoquinone in mice
Assay: Siegmund test or Writhing test (phenylbenzoquinone-induced painful spasm)
Format: in vivo, mice (male, Swiss strain)
Conditions: esophageal tube, 30 min before phenylbenzoquinone
Procedure: During said tests, the antispasmodic and analgesic activity of phloroglucinol, of paracetamol, and of phloroglucinol combined with paracetamol was evaluated using the Siegmund test or “Writhing test”. The principle of this test, which is familiar to those skilled in the art, is briefly summarized hereinafter. The intraperitoneal injection of phenylbenzoquinone in mice causes a painful spasm, which can be reduced with antispasmodic substances (causal medication) and analgesic substances (symptomatic medication).
The test was carried out on batches of 10 male mice, of the Swiss strain, having an average weight of 22 g±2. The spasmodic and painful syndrome caused by the intraperitoneal injection of 0.25 ml of the phenylbenzoquinone solution is characterized by hind limb stretching movements and dorso-abdominal musculature twisting movements, which accounted for a period of time of 30 min, starting from 15 min following the administration of the phenylbenzoquinone.
An antispasmodic and analgesic effect manifests itself through a reduction in the number of spasmodic attacks, which is dependent on the dose. For each test, the substance being studied is administered by means of an esophageal tube, 30 min before the phenylbenzoquinone.
For experimental ease, the following were used: • phloroglucinol Lyoc (lyophilizate), and • effervescent paracetamol (tablet); the two substances being perfectly soluble and miscible.
To test the products administered in isolation (prior art), on the one hand, phloroglucinol lyocs (lyophilized systems) were dissolved in distilled water, and on the other hand, effervescent paracetamol tablets were solubilized in distilled water (the solution obtained has a pH of 5).
To test the pharmaceutical compositions of the invention, such phloroglucinol lyocs (lyophilized systems) and such effervescent paracetamol tablets were dissolved and solubilized together. The solution which contains the two active ingredients itself also has a pH of 5.
Given the metabolism in this animal species, the mouse, which is more accelerated than in humans, those skilled in the art, specialists in pharmacology, most commonly use doses which are multiples of the human dose in order to be able to readily objectivize the results.
The results are expressed as percentage of inhibition of the spasm and of the pain relative to control animals which receive only 20 ml/kg of distilled water.

Row | Compound | % inhibition of the spasm and of the pain relative to control animals (paracetamol 50 mg/kg, mice (repeated in each of four series)) | % inhibition of the spasm and of the pain relative to control animals (phloroglucinol 40 mg/kg, mice) [%] | % inhibition of the spasm and of the pain relative to control animals (phloroglucinol 80 mg/kg, mice) [%] | % inhibition of the spasm and of the pain relative to control animals (phloroglucinol 100 mg/kg, mice) [%] | % inhibition of the spasm and of the pain relative to control animals (phloroglucinol 120 mg/kg, mice) [%]
1 | CC(=O)Nc1ccc(O)cc1 [Paracetamol, 4-acetylaminophenol] | 40% and 39% and 37% |  |  |  | 
2 | Oc1cc(O)cc(O)c1 [Phloroglucinol, 1,3,5-trihydroxy-benzene] |  | 7 | 21 | 27 | 32

— patent US8148425B2, “Pharmaceutical composition containing phloroglucinol and paracetamol” (Promindus (Actions Promotionnelles Dans l'Industrie et le …, priority 2007, dated 2012)
